Like-named read-outs stand apart in the source and are kept apart here.
Target: human GLP-1R (Homo sapiens, UniProt P43220, G168S)
Assay: CHO GLP-1R Clone H6—Assay 1: HTRF cAMP cell-based functional agonist assay (high GLP-1R density)
Details: for EC50: CHO GLP-1R Clone H6, cAMP HTRF, geometric mean; for Emax: read-out: Assay 1 Emax (%), CHO GLP-1R Clone H6
[1] = relative to saturating concentration of full agonist GLP-1 (1 μM), arithmetic mean

Chain of human GLP-1R (P43220 24-463 G168S limits assumed): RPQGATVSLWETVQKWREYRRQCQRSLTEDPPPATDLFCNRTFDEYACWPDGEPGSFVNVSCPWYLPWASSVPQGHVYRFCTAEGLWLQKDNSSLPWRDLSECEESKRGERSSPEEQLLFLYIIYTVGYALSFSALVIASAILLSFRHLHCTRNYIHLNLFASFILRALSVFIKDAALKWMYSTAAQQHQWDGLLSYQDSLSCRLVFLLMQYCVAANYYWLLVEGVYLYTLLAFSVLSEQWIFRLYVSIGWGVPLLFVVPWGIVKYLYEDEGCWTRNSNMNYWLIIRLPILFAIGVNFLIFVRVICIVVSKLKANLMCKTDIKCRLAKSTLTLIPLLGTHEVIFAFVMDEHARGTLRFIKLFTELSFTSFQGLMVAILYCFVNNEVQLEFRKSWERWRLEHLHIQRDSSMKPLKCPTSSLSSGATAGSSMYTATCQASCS

| EC50 (read-out: Assay 1 EC50) | Emax [1] | EC50 (Assay 1 EC50 (nM)) | Assay 1 Emax (%) (CHO GLP-1R Clone H6, relative to saturating concentration of full agonist GLP-1 (1 μM), arithmetic mean) | Compound |
| --- | --- | --- | --- | --- |
| 190 nM | 80% | – | – | Cn1cc(Cn2c(CN3CCC(c4cccc(OCc5ccc(Cl)cc5F)n4)CC3)nc3ccc(C(=O)O)cc32)cn1 [Example 11A-43, 2-[(4-{6-[(4-chloro-2-fluorobenzyl)oxy]pyridin-2-yl}piperidin-1-yl)methyl]-1-[(1-methyl-1H-pyrazol-4-yl)methyl]-1H-benzimidazole-6-carboxylic acid] |
| 1400 nM | 97% | – | – | Cc1n[nH]c(Cn2c(CN3CCC(c4cccc(OCc5ccc(Cl)cc5F)n4)CC3)nc3ccc(C(=O)O)cc32)n1 [Example 11A-59, 2-[(4-{6-[(4-chloro-2-fluorobenzyl)oxy]pyridin-2-yl}piperidin-1-yl)methyl]-1-[(3-methyl-1H-1,2,4-triazol-5-yl)methyl]-1H-benzimidazole-6-carboxylic acid] |
| 110 nM | 79% | – | – | Cn1cc(Cn2c(CN3CCC(c4cccc(OCc5ccc(Cl)cc5F)n4)CC3)nc3ccc(C(=O)O)cc32)nn1 [Example 11A-36, 2-[(4-{6-[(4-chloro-2-fluorobenzyl)oxy]pyridin-2-yl}piperidin-1-yl)methyl]-1-[(1-methyl-1H-1,2,3-triazol-4-yl)methyl]-1H-benzimidazole-6-carboxylic acid] |
| 510 nM | 64% | – | – | COCCn1c(CN2CCN(c3cccc(OCc4ccc(Cl)cc4F)n3)CC2(C)C)nc2ccc(C(=O)O)cc21 [Example 12A-06, 2-[(4-{6-[(4-chloro-2-fluorobenzyl)oxy]pyridin-2-yl}-2,2-dimethylpiperazin-1-yl)methyl]-1-(2-methoxyethyl)-1H-benzimidazole-6-carboxylic acid] |
| 1600 nM | 80% | – | – | CC(c1cnn(C)n1)n1c(CN2CCC(c3cccc(OCc4ccc(Cl)cc4F)n3)CC2)nc2ccc(C(=O)O)cc21 (centres unmarked) [Example 11A-60, 2-[(4-{6-[(4-chloro-2-fluorobenzyl)oxy]pyridin-2-yl}piperidin-1-yl)methyl]-1-[1-(2-methyl-2H-1,2,3-triazol-4-yl)ethyl]-1H-benzimidazole-6-carboxylic acid] |
| 380 nM | 75% | – | – | O=C(O)c1ccc2nc(CN3CCC(c4cccc(OCc5ccc(Cl)cc5F)n4)CC3)n(CCN3CCOCC3)c2c1 [Example 11A-50, 2-[(4-{6-[(4-chloro-2-fluorobenzyl)oxy]pyridin-2-yl}piperidin-1-yl)methyl]-1-[2-(morpholin-4-yl)ethyl]-1H-benzimidazole-6-carboxylic acid] |
| 320 nM | 79% | – | – | Cc1cc(Cn2c(CN3CCC(c4cccc(OCc5ccc(Cl)cc5F)n4)CC3)nc3ccc(C(=O)O)cc32)on1 [Example 11A-47, 2-[(4-{6-[(4-chloro-2-fluorobenzyl)oxy]pyridin-2-yl}piperidin-1-yl]methyl]-1-[(3-methyl-1,2-oxazol-5-yl)methyl]-1H-benzimidazole-6-carboxylic acid] |
| > 20000 nM | – | – | – | CN1CCCCC1Cn1c(CN2CCC(c3cccc(OCc4ccc(Cl)cc4F)n3)CC2)nc2ccc(C(=O)O)cc21 (centres unmarked) [Example 11A-10, 2-[(4-{6-[(4-chloro-2-fluorobenzyl)oxy]pyridin-2-yl}piperidin-1-yl)methyl]-1-[(1-methylpiperidin-2-yl)methyl]-1H-benzimidazole-6-carboxylic acid] |
| 130 nM | 80% | – | – | CCn1ccnc1Cn1c(CN2CCC(c3cccc(OCc4ccc(Cl)cc4F)n3)CC2)nc2ccc(C(=O)O)cc21 [Example 11A-39, 2-[(4-{6-[(4-chloro-2-fluorobenzyl)oxy]pyridin-2-yl}piperidin-1-yl)methyl]-1-[(1-ethyl-1H-imidazol-2-yl)methyl]-1H-benzimidazole-6-carboxylic acid] |
| 300 nM | 66% | – | – | COC[C@@H](C)n1c(CN2CCC(c3cccc(OCc4ccc(Cl)cc4F)n3)CC2)nc2ccc(C(=O)O)cc21 [Example 11A-46, 2-[(4-{6-[(4-chloro-2-fluorobenzyl)oxy]pyridin-2-yl}piperidin-1-yl]methyl]-1-[(2R)-1-methoxypropan-2-yl]-1H-benzimidazole-6-carboxylic acid] |
| 1100 nM | 47% | – | – | COC1CCN(CCn2c(CN3CCC(c4cccc(OCc5ccc(Cl)cc5F)n4)CC3)nc3ccc(C(=O)O)cc32)CC1 [Example 11A-56, 2-[(4-{6-[(4-chloro-2-fluorobenzyl)oxy]pyridin-2-yl}piperidin-1-yl)methyl]-1-[2-(4-methoxypiperidin-1-yl)ethyl]-1H-benzimidazole-6-carboxylic acid] |
| > 20000 nM | – | – | – | CN1CCCC1CCn1c(CN2CCC(c3cccc(OCc4ccc(Cl)cc4F)n3)CC2)nc2ccc(C(=O)O)cc21 (centres unmarked) [Example 11A-09, 2-[(4-{6-[(4-chloro-2-fluorobenzyl)oxy]pyridin-2-yl}piperidin-1-yl)methyl]-1-[2-(1-methylpyrrolidin-2-yl)ethyl]-1H-benzimidazole-6-carboxylic acid] |
| – | – | 1200 nM | 58% | COCCn1c(CN2CCC(c3cccc(OCc4ccc(Cl)cc4F)n3)CC2C)nc2ccc(C(=O)O)cc21 (single isomer, unassigned) [Example 13A-01, trans 2-{[4-{6-[(4-Chloro-2-fluorobenzyl)oxy]pyridin-2-yl}-2-methylpiperidin-1-yl]methyl}-1-(2-methoxyethyl)-1H-benzimidazole-6-carboxylic acid] |
| 2200 nM | 87% | – | – | COCc1cc(Cn2c(CN3CCC(c4cccc(OCc5ccc(Cl)cc5F)n4)CC3)nc3ccc(C(=O)O)cc32)[nH]n1 [Example 11A-62, 2-[(4-{6-[(4-chloro-2-fluorobenzyl)oxy]pyridin-2-yl}piperidin-1-yl)methyl]-1-{[3-(methoxymethyl)-1H-pyrazol-5-yl]methyl}-1H-benzimidazole-6-carboxylic acid] |

More lines, now with the values behind:

| Compound | EC50 (read-out: Assay 1 EC50) | Emax [1] | EC50 (Assay 1 EC50 (nM)) | Assay 1 Emax (%) (CHO GLP-1R Clone H6, relative to saturating concentration of full agonist GLP-1 (1 μM), arithmetic mean) |
| --- | --- | --- | --- | --- |
| COCCn1c(CN2CCN(c3cccc(OCc4ccc(Cl)cc4F)n3)C(C)(C)C2)nc2ccc(C(=O)O)cc21 [Example 1A-12, 2-[(4-{6-[(4-chloro-2-fluorobenzyl)oxy]pyridin-2-yl}-3,3-dimethylpiperazin-1-yl)methyl]-1-(2-methoxyethyl)-1H-benzimidazole-6-carboxylic acid] | 750 nM | 76% | – | – |
| CN1CCC(Cn2c(CN3CCC(c4cccc(OCc5ccc(Cl)cc5F)n4)CC3)nc3ccc(C(=O)O)cc32)CC1 [Example 11A-08, 2-[(4-{6-[(4-chloro-2-fluorobenzyl)oxy]pyridin-2-yl}piperidin-1-yl)methyl]-1-[(1-methylpiperidin-4-yl)methyl]-1H-benzimidazole-6-carboxylic acid] | > 20000 nM | – | – | – |
| CCN1CCC(Cn2c(CN3CCC(c4cccc(OCc5ccc(Cl)cc5F)n4)CC3)nc3ccc(C(=O)O)cc32)C1 (centres unmarked) [Example 11A-03, 2-[(4-{6-[(4-chloro-2-fluorobenzyl)oxy]pyridin-2-yl}piperidin-1-yl)methyl]-1-[(1-ethylpyrrolidin-3-yl)methyl]-1H-benzimidazole-6-carboxylic acid] | > 16000 nM | 100% | – | – |
| COCCn1c(CN2CCN(c3cccc(OCc4ccc(Cl)cc4F)n3)[C@@H](CO)C2)nc2ccc(C(=O)O)cc21 [Example 1A-15, 2-{[(3R)-4-{6-[(4-chloro-2-fluorobenzyl)oxy]pyridin-2-yl}-3-(hydroxymethyl)piperazin-1-yl]methyl}-1-(2-methoxyethyl)-1H-benzimidazole-6-carboxylic acid] | > 20000 nM | – | – | – |
| O=C(O)c1ccc2nc(CN3CCC(c4cccc(OCc5ccc(Cl)cc5F)n4)CC3)n(Cc3ncon3)c2c1 [Example 10A-70] | 5 nM | 65% | – | – |
| Cn1c(CN2CCC(c3cccc(OCc4ccccc4F)n3)CC2)nc2ccc(C(=O)O)cc21 [Example 9A-06, 2-[(4-{6-[(2-fluorobenzyl)oxy]pyridin-2-yl}piperidin-1-yl)methyl]-1-methyl-1H-benzimidazole-6-carboxylic acid] | 870 nM | 82% | – | – |
| Cc1nnc(CCn2c(CN3CCC(c4cccc(OCc5ccc(Cl)cc5F)n4)CC3)nc3ccc(C(=O)O)cc32)o1 [Example 10A-28] | 190 nM | 71% | – | – |
| O=C(O)c1cnc2nc(CN3CCC(c4cccc(OCc5ccc(Cl)cc5F)n4)CC3)n(CC(F)(F)F)c2c1 [Example 2A-16, 2-[(4-{6-[(4-chloro-2-fluorobenzyl)oxy]pyridin-2-yl}piperidin-1-yl)methyl]-1-(2,2,2-trifluoroethyl)-1H-imidazo[4,5-b]pyridine-6-carboxylic acid] | 370 nM | 75% | – | – |
| Cn1c(CN2CCC(c3cccc(OCc4ccccc4)n3)CC2)nc2ccc(C(=O)O)cc21 [Example 9A-01, 2-((4-(6-(Benzyloxy)pyridin-2-yl)piperidin-1-yl)methyl)-1-methyl-1H-benzo[d]imidazole-6-carboxylic acid] | 1200 nM | 78% | – | – |
| Cn1c(CN2CCC(c3cccc(OCc4ccc(C(F)(F)F)cc4)n3)CC2)nc2ccc(C(=O)O)cc21 [Example 9A-13, 1-methyl-2-{[4-(6-{[4-(trifluoromethyl)benzyl]oxy}pyridin-2-yl)piperidin-1-yl]methyl}-1H-benzimidazole-6-carboxylic acid] | 170 nM | 68% | – | – |
| Cn1cnc(CCn2c(CN3CCC(c4cccc(OCc5ccc(Cl)cc5F)n4)CC3)nc3ccc(C(=O)O)cc32)c1 [Example 11A-01, 2-[(4-{6-[(4-chloro-2-fluorobenzyl)oxy]pyridin-2-yl}piperidin-1-yl)methyl]-1-[2-(1-methyl-1H-imidazol-4-yl)ethyl]-1H-benzimidazole-6-carboxylic acid] | > 10000 nM | 85% | – | – |
| CN(C)CCn1c(CN2CCC(c3cccc(OCc4ccc(Cl)cc4F)n3)CC2)nc2ccc(C(=O)O)cc21 [Example 10A-11] | 75 nM | 69% | – | – |
| O=C(O)c1ccc2nc(CN3CCC(c4cccc(OCc5ccc(Cl)cc5F)n4)CC3)n(CCO)c2c1 [Example 10A-50] | 290 nM | 64% | – | – |

— patent US10208019B2, “GLP-1 receptor agonists and uses thereof” (Pfizer Inc., priority 2016, dated 2019)
